From article PMC10536304 (2023)

Key:
[1] = tested on: AU-RNA (poly A-poly U; rArU-RNA) (RNA, polymer) A/U; test: CD titration, Scatchard; conditions: Na+ (sodium cacodylate, I = 0.05 M); sodium cacodylate pH 7.0, 25 °C; Scatchard n fixed 0.2 per phosphate; per base
[2] = tested on: AU-RNA (poly A-poly U; rArU-RNA) (RNA, polymer) A/U; test: UV thermal melting, 260 nm; conditions: Na+ (sodium cacodylate, I = 0.05 M); sodium cacodylate pH 7.0; r[compound]/[polynucleotide] = 0.1, polynucleotide 25 µM (phosphate); per base

logKs [1]: 6.5 log(M^-1)
∆Tm [2]: 3.7 ± 0.5 °C
Compound: c1cc2ccc3ccc(CNCCCNCCN(CCNCCCNCc4ccc5ccc6cccc7ccc4c5c67)CCNCCCNCc4ccc5ccc6cccc7ccc4c5c67)c4ccc(c1)c2c34
